Bounds are passed on as bounds.

The target in the assay is 15-PGDH/HPGD (Homo sapiens (Human), UniProt P15428). Description: hPGDH inhibitor screening biochemical assay. The settings on record: read-out: hPGDH: Average IC50. An outline of the steps: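 Recombinant human 15-PGDH (10 nM) pre-incubated with compounds 10 min at 37 °C, then 15 μM PGE2 and 0.25 mM NAD+ added for 10 min at room temperature in 50 mM Tris-HCl pH 7.5, 0.01% Tween 20. NADH fluorescence read at ex/em 340/485 nm. IC50 from 10-point curves, four-parameter fit versus 1% DMSO.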
15-PGDH/HPGD, sequence (P15428 whole entry): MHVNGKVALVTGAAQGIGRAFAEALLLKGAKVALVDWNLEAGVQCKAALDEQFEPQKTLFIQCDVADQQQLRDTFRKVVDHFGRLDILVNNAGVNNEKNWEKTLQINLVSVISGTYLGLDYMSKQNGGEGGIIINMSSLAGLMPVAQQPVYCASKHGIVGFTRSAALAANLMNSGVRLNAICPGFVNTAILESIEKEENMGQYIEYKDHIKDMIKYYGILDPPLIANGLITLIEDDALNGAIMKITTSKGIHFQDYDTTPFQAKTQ
Broadly, the IC50 is the concentration needed to halve the response being measured. As to `COc1ccc(-n2ccc3cc(C(=O)N4CCC(F)CC4)cnc32)cc1` [MF-DH-285], the IC50 was below 100 nM. In the case of `COc1ccc(-n2ccc3cc(C(=O)N4CCCCC4)cnc32)cc1` [MF-DH-297] it was below 100 nM; in that of `O=C(c1ccc2c(c1)ncn2-c1cccc(Cl)c1)N1CC(Cl)C1` [MF-PGDH-107], below 100 nM.

Regarding `COc1ccc(-n2ccc3cc(C(=O)N4CCN(CC(F)(F)F)CC4)cnc32)cc1` [MF-DH-327], the IC50 was at least 1000 nM. For `N#Cc1ccc(-n2ccc3cc(C(=S)N4CCC(F)(F)CC4)cnc32)cc1` [MF-DH-449, 4-(5-(4,4-difluoropiperidine-1-carbonothioyl)-1H-pyrrolo[2,3-b]pyridin-1-yl)benzonitrile], the IC50 is at least 1000 nM. On to `COc1ccc(-c2cn(C)c3cc(C(=O)N4CCC(F)CC4)cnc23)cc1` [MF-DH-181, (4-fluoropiperidin-1-yl)(3-(4-methoxyphenyl)-1-methyl-1H-pyrrolo[3,2-b]pyridin-6-yl)methanone], for which the IC50 lay within 100 to 1000 nM.

Turning to `O=C(O)[C@@H]1CCCN1C(=O)c1ccc(-n2ccc3cc(C(=O)N4CCC(F)(F)CC4)cnc32)cc1` [MF-DH-432], the half-inhibitory concentration (IC50) was below 100 nM. In the case of `O=C1CCN(C(=O)c2ccc3c(c2)ncn3-c2cccc(Cl)c2)C1` [MF-PGDH-090, 1-(1-(3-chlorophenyl)-1H-benzo[d]imidazole-5-carbonyl)pyrrolidin-3-one] it was at least 1000 nM. As to `O=C(c1ccc2c(c1)ncn2-c1cccc(Cl)c1)N1CCCC1` [MF-PGDH-046], the half-maximal inhibitory concentration (IC50) was 100 to 1000 nM.

With `O=C(c1ccc2c(c1)ncn2-c1cccc(Cl)c1)N1CC(F)C1` [MF-PGDH-106], the IC50 was below 100 nM. In the case of `COc1ccc(-n2c(N)nc3cc(C(=O)N4CCC(F)CC4)cnc32)cc1` [MF-DH-115] it was 100 to 1000 nM; in that of `COc1ccc(-n2c(CCC(F)(F)F)nc3cc(C(=O)N4CCC(F)CC4)cnc32)cc1` [MF-DH-195], 100 to 1000 nM; in that of `NC(=O)c1cccc(-n2ccc3cc(C(=O)N4CCC(F)CC4)cnc32)c1` [MF-DH-345], below 100 nM. In the case of `O=C(O)c1ccc(-n2ccc3cc(C(=O)N4CCCCC4)cnc32)cc1` [MF-DH-433, 4-(5-(piperidine-1-carbonyl)-1H-pyrrolo[2,3-b]pyridin-1-yl)benzoic acid] it was below 100 nM; in that of `O=C(c1ccc2c(c1)c(Cl)cn2-c1cccc(Cl)c1)N1CCCCC1` [MF-PGDH-005], below 100 nM. Consider `CC(C)(CC(=O)O)NC(=O)c1ccc(-n2ccc3cc(C(=O)N4CCC(F)(F)CC4)cnc32)cc1` [MF-DH-431], for which the IC50 was below 100 nM.

On to `CS(=O)(=O)NCCNC(=O)c1cccc(-n2ccc3cc(C(=O)N4CCC(F)(F)CC4)cnc32)c1` [MF-DH-480, 3-(5-(4,4-difluoropiperidine-1-carbonyl)-1H-pyrrolo[2,3-b]pyridin-1-yl)-N-(2-(methylsulfonamido)ethyl)benzamide], for which the IC50 is below 100 nM. The result for `O=C(c1ccc(COc2ccccc2Br)cc1)N1CCCCC1` [MF-PGDH-036] reads below 100 nM; that for `O=C(c1ccc2c(c1)c(Cl)nn2-c1cncc(Cl)c1)N1CCCCC1` [MF-DH-271], 100 to 1000 nM; that for `O=C(NCCO)c1cccc(-n2ccc3cc(C(=O)N4CCC(F)(F)CC4)cnc32)c1` [MF-DH-468, 3-(5-(4,4-difluoropiperidine-1-carbonyl)-1H-pyrrolo[2,3-b]pyridin-1-yl)-N-(2-hydroxyethyl)benzamide], below 100 nM. In the case of `Nc1cc(-n2ccc3cc(C(=O)N4CCCCC4)cnc32)ccn1` [MF-DH-317] it was below 100 nM; in that of `CN(C)c1ccc(-n2ccc3cc(C(=O)N4CCCCC4)cnc32)cc1` [MF-DH-305], below 100 nM. The result for `NC(=O)c1ncc(-n2ccc3cc(C(=O)N4CCCCC4)cnc32)cn1` [MF-DH-384] reads below 100 nM. As to `N#Cc1ccc(-n2c(CCC(N)=O)cc3cc(C(=O)N4CCC(F)(F)CC4)cnc32)cc1` [MF-DH-446, 3-(1-(4-cyanophenyl)-5-(4,4-difluoropiperidine-1-carbonyl)-1H-pyrrolo[2,3-b]pyridin-2-yl)propanamide], the concentration for half-maximal inhibition (IC50) lay within 100 to 1000 nM.

Regarding `COCCNC(=O)c1ccc(-n2ccc3cc(C(=O)N4CCCCC4)cnc32)cc1` [MF-DH-367], the IC50 was below 100 nM. Turning to `COc1cccc(-n2nc(Cl)c3cc(C(=O)N4CCCCC4)ccc32)c1` [MF-DH-272], the IC50 lay in the range of 100 to 1000 nM. The result for `O=C(c1cnc2c(c1)c(Cl)cn2-c1ccncn1)N1CCC(F)CC1` [MF-DH-132] reads 100 to 1000 nM. In the case of `COc1ccccc1NC(=O)c1ccc(C(=O)N2CCCCC2)cc1` [MF-PGDH-043, N-(2-methoxyphenyl)-4-(piperidine-1-carbonyl) benzamide] it was 100 to 1000 nM; in that of `Cc1cc(-n2ccc3cc(C(=O)N4CCCCC4)cnc32)cnc1N` [MF-DH-392], below 100 nM; in that of `CC(C)(O)c1cccc(-n2ccc3cc(C(=O)N4CCCCC4)cnc32)c1` [MF-DH-375], 100 to 1000 nM. As for `COc1cc(C(=O)N2CCC(F)CC2)ccc1COc1ccccc1Cl` [MF-DH-118], the IC50 is 100 to 1000 nM.

Take `NC(=O)[C@@H]1CCCN1C(=O)c1ccc(-n2ccc3cc(C(=O)N4CCC(F)(F)CC4)cnc32)cc1` [MF-DH-450, (S)-1-(4-(5-(4,4-difluoropiperidine-1-carbonyl)-1H-pyrrolo[2,3-b]pyridin-1-yl)benzoyl)pyrrolidine-2-carboxamide]: the IC50 was below 100 nM.

Consider `O=C(c1cnc2c(ccn2-c2ccc(O)nc2)c1)N1CCCCC1` [MF-DH-321], for which the IC50 was below 100 nM.

As to `O=C(c1cnc2c(ccn2-c2cncc(NS(=O)(=O)C3CC3)c2)c1)N1CCC(F)(F)CC1` [MF-DH-484, N-(5-(5-(4,4-difluoropiperidine-1-carbonyl)-1H-pyrrolo[2,3-b]pyridin-1-yl)pyridin-3-yl)cyclopropanesulfonamide], the IC50 is below 100 nM. Regarding `O=C(c1cnc2c(ccn2-c2cncnc2)c1)N1CCCCC1` [MF-PGDH-070], the IC50 was below 100 nM. In the case of `O=C(Nc1cc(C2CC2)[nH]n1)c1cncc(-n2ccc3cc(C(=O)N4CCC(F)(F)CC4)cnc32)c1` [MF-DH-501, N-(5-cyclopropyl-1H-pyrazol-3-yl)-5-(5-(4,4-difluoropiperidine-1-carbonyl)-1H-pyrrolo[2,3-b]pyridin-1-yl)nicotinamide] it was below 100 nM. In the case of `O=C(c1cnc2c(ccn2-c2ccncn2)c1)N1CCC(F)CC1` [MF-DH-131] it was below 100 nM; in that of `O=C(c1cnc2c(c1)c(Cl)cn2-c1ccc2c(c1)OC(F)(F)O2)N1CCCCC1` [MF-DH-251], below 100 nM; in that of `Cc1nc2c(cc1C(=O)N1CCC(F)CC1)c(Cl)cn2-c1cnccn1` [MF-DH-149], at least 1000 nM. In the case of `COc1ccc(-n2cnc3cc(C(=O)N4CCCCC4)ccc32)nc1` [MF-PGDH-022] it was below 100 nM.

As for `O=C(c1ccc2c(c1)CCC(=O)N2c1cccc(Cl)c1)N1CCCCC1` [MF-PGDH-058, 1-(3-chlorophenyl)-6-(piperidine-1-carbonyl)-3,4-dihydroquinolin-2(1H)-one], the IC50 was in the range of 100 to 1000 nM. The result for `O=C(c1ccc(COc2ccccc2-c2cnc[nH]2)cc1)N1CCCCC1` [MF-PGDH-096] reads below 100 nM; that for `O=C(c1ccc(CSc2ccccc2Cl)cc1)N1CCCCC1` [MF-PGDH-039], below 100 nM. In the case of `O=C(c1cnc2c(ccn2-c2cnccn2)c1Cl)N1CCC(F)CC1` [MF-DH-146] it was below 100 nM.

For the compound `CC(C)(C(N)=O)c1cncc(-n2ccc3cc(C(=O)N4CCC(F)(F)CC4)cnc32)c1` [MF-DH-487, 2-(5-(5-(4,4-difluoropiperidine-1-carbonyl)-1H-pyrrolo[2,3-b]pyridin-1-yl)pyridin-3-yl)-2-methylpropanamide], the IC50 is below 100 nM. The result for `Cc1nc2c(ccn2-c2cnccn2)cc1C(=O)N1CCC(F)CC1` [MF-DH-148] reads at least 1000 nM; that for `O=C(c1ccc2c(ccn2-c2cccc(Cl)c2)c1)N1CCCCC1` [MF-PGDH-004], below 100 nM; that for `N#Cc1ccc(-n2ccc3cc(C(=O)N4CCCCC4)cnc32)cn1` [MF-DH-389], below 100 nM.

Consider `CCOC(=O)c1nc2cc(C(=O)N3CCCCC3)ccc2n1-c1cccc(Cl)c1` [MF-PGDH-027, ethyl 1-(3-chlorophenyl)-5-(piperidine-1-carbonyl)-1H-benzo[d]imidazole-2-carboxylate], for which the IC50 was below 100 nM.

On to `CN(C)c1ccc(-n2ccc3cc(C(=O)N4CCC(F)CC4)cnc32)cc1` [MF-DH-346], for which the IC50 was below 100 nM.

For the compound `O=C(c1cnc2c(ccn2-c2ccc(C3(C(=O)O)CC3)cc2)c1)N1CCC(F)(F)CC1` [MF-DH-427, 1-(4-(5-(4,4-difluoropiperidine-1-carbonyl)-1H-pyrrolo[2,3-b]pyridin-1-yl)phenyl)cyclopropane-1-carboxylic acid], the IC50 fell in the range of 100 to 1000 nM. The result for `N#Cc1ccc(-n2ccc3cc(C(=O)N4CCCCC4)cnc32)cc1` [MF-DH-298] reads below 100 nM; that for `Cc1cn(-c2cncnc2)c2ccc(C(=O)N3CCC(F)CC3)cc12` [MF-DH-178, (4-fluoropiperidin-1-yl)(3-methyl-1-(pyrimidin-5-yl)-1H-indol-5-yl)methanone], 100 to 1000 nM. In the case of `O=C(c1ccc(C[S+]([O-])c2ccccc2Cl)cc1)N1CCCCC1` (centres unmarked) [MF-PGDH-045, (4-(((2-chlorophenyl)sulfinyl)methyl)phenyl)(piperidin-1-yl)methanone] it was 100 to 1000 nM; in that of `COc1ccc(-n2cnc3cc(C(=O)N4CCC(F)CC4)ccc32)nc1` [MF-DH-141], below 100 nM.

For `O=C(c1cnc2c(-c3cccc(Cl)c3)cnn2c1)N1CCCCC1` [MF-PGDH-012, (3-(3-chlorophenyl)pyrazolo[1,5-a]pyrimidin-6-yl)(piperidin-1-yl)methanone], the IC50 was below 100 nM. The result for `CN(C)C(=O)c1ccc(-n2ccc3cc(C(=O)N4CCCCC4)cnc32)cc1` [MF-DH-369] reads below 100 nM. In the case of `O=C(c1ccc(COc2ccccc2Cl)cc1)N1CCCCC1` [MF-PGDH-037] it was below 100 nM; in that of `NC(=O)c1ccc(-n2ccc3cc(C(=O)N4CCC(F)CC4)cnc32)cc1` [MF-DH-343], below 100 nM.

Values taken from patent US11345702B1 (Myoforte Therapeutics, Inc., priority 2020, dated 2022).
